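Grown in 96-well plates, cells were treated for 48 hours with each compound at five concentrations. Insufficient inhibition: endpoint recorded as highest concentration tested. TGI: concentration producing complete growth inhibition.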
Columns and labels:
Experiment in all cases: inhibition of tumour cell growth, NCI panel, 48 h
786-0 renal = system: 786-0 renal
A498 renal = system: A498 renal
A549 NSCLC = system: A549 NSCLC
ACHN renal = system: ACHN renal
CAKI-1 renal = system: CAKI-1 renal
CCRF-CEM leukemia = system: CCRF-CEM leukemia
COLO 205 colon = system: COLO 205 colon
DMS 114 small cell lung = system: DMS 114 small cell lung
DMS 273 small cell lung = system: DMS 273 small cell lung
EKVX NSCLC = system: EKVX NSCLC
HCC-2998 colon = system: HCC-2998 colon
HCT-116 colon = system: HCT-116 colon
HCT-15 colon = system: HCT-15 colon
HL-60(TB) leukemia = system: HL-60(TB) leukemia
HOP-18 NSCLC = system: HOP-18 NSCLC
HOP-62 NSCLC = system: HOP-62 NSCLC
HOP-92 NSCLC = system: HOP-92 NSCLC
HT29 colon = system: HT29 colon
IGROV1 ovarian = system: IGROV1 ovarian
K-562 leukemia = system: K-562 leukemia
KM12 colon = system: KM12 colon
KM20L2 colon = system: KM20L2 colon
LOX IMVI melanoma = system: LOX IMVI melanoma
LXFL 529 NSCLC = system: LXFL 529 NSCLC
M14 melanoma = system: M14 melanoma
M19-MEL melanoma = system: M19-MEL melanoma
MALME-3M melanoma = system: MALME-3M melanoma
MOLT-4 leukemia = system: MOLT-4 leukemia
NCI-H226 lung = system: NCI-H226 lung
NCI-H23 lung = system: NCI-H23 lung
NCI-H460 lung = system: NCI-H460 lung
NCI-H522 lung = system: NCI-H522 lung
OVCAR-3 ovarian = system: OVCAR-3 ovarian
OVCAR-5 ovarian = system: OVCAR-5 ovarian
OVCAR-8 ovarian = system: OVCAR-8 ovarian
RPMI-8226 leukemia = system: RPMI-8226 leukemia
RXF 393 renal = system: RXF 393 renal
RXF-631 renal = system: RXF-631 renal
SF-268 CNS = system: SF-268 CNS
SF-295 CNS = system: SF-295 CNS
SF-539 CNS = system: SF-539 CNS
SK-MEL-2 melanoma = system: SK-MEL-2 melanoma
SK-MEL-28 melanoma = system: SK-MEL-28 melanoma
SK-MEL-5 melanoma = system: SK-MEL-5 melanoma
SK-OV-3 ovarian = system: SK-OV-3 ovarian
SN12C renal = system: SN12C renal
SNB-19 CNS = system: SNB-19 CNS
SNB-75 CNS = system: SNB-75 CNS
SNB-78 CNS = system: SNB-78 CNS
SR leukemia = system: SR leukemia
SW-620 colon = system: SW-620 colon
TK-10 renal = system: TK-10 renal
U251 CNS = system: U251 CNS
UACC-257 melanoma = system: UACC-257 melanoma
UACC-62 melanoma = system: UACC-62 melanoma
UO-31 renal = system: UO-31 renal
XF 498 CNS = system: XF 498 CNS
DLD-1 colon = system: DLD-1 colon
OVCAR-4 ovarian = system: OVCAR-4 ovarian

Measured: TGI

Cc1ccc(NC(=O)CC/C(CC(=O)C(C)(C)C)=N/Nc2nnc(C)n2N)cc1C
not listed: DLD-1 colon | OVCAR-4 ovarian
> 100 µM: all other assays above

C[Si]1(C)C(c2ccccc2)=CC2C(c3ccccc3)(c3ccccc3)OC21c1ccccc1 (centres undefined)
not listed: OVCAR-8 ovarian | SNB-78 CNS
> 100 µM: all other assays above
